Structures can show the parent of a compound that is named as a salt. Marks after values point to notes of the source that are not given here.
Columns and labels:
STAT3-SH2 domain = target: T1, STAT3-SH2 domain (Homo sapiens, UniProt P40763); assay: AlphaScreen-based assay, STAT3-SH2 domain / pTyr peptide binding; conditions: for IC50: read-out: STAT3 IC50 (μM) ± SD; for inhibition at 30 µM: a = mean of two experiments
T1 construct: First, 75 nM of each SH2-containing protein was incubated with the test compound for 15 min

STAT1 = target: T2, STAT1 (Homo sapiens, UniProt P42224); assay: AlphaScreen-based assay, selectivity versus STAT1; type: binding; conditions: for IC50: read-out: STAT1 IC50 (μM) ± SD
T2 construct: First, 75 nM of each SH2-containing protein was incubated with the test compound for 15 min
T2 sequence (P42224 1-750): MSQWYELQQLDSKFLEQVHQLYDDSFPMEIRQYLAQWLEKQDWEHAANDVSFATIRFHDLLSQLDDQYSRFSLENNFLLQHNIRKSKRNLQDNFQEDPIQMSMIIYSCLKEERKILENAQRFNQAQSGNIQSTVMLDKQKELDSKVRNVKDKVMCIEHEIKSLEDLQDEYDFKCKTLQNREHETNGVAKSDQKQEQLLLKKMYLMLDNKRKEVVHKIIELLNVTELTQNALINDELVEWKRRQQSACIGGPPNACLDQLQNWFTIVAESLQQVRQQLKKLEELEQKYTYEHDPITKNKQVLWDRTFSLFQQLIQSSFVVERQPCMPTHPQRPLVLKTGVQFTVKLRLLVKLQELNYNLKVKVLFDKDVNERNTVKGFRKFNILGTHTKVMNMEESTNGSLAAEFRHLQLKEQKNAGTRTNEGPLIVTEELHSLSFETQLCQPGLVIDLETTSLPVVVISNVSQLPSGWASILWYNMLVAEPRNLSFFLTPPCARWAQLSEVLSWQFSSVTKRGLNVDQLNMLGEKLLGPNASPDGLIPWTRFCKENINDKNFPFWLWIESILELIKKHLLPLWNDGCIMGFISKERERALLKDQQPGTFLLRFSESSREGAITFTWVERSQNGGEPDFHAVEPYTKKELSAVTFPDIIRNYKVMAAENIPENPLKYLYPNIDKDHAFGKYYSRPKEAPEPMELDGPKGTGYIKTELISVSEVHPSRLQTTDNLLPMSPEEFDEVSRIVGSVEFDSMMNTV
Method: (§1) STAT3 inhibitory activity of the described compounds was tested by the AlphaScreen-based assay to evaluate the potential inhibition of the interaction between STAT3-SH2 domain and pTyr-containing peptides according to the previously reported procedure. For the most interesting compounds, selectivity tests versus STAT1 and Grb2 (Growth factor receptor-bound protein 2) were performed. AlphaScreen is a bead-based nonradioactive assay system for detecting biomolecular interactions in a microtiter plate format. Binding of biological partners brings donor and acceptor beads into close proximity and as result, a luminescent signal between 520 and 620 nm is produced. The AlphaScreen-based assays were typically performed in a final reaction volume of 25 μl of the assay buffer containing 10 mM HEPES–NaOH (pH 7.4), 50 mM NaCl, 1 mM EDTA (pH 8.0), 0.1% NP-40, and 10 ng/μl BSA in a 96-well microtiter plate at 25 °C. Phospho-Tyr (pTyr) peptide probes used in this study were 5-carboxyfluorescein (FITC)-GpYLPQTV for STAT3, FITC-GpYDKPHVL for STAT1, and FITC-PSpYVNVQN for Grb2. First, 75 nM of each SH2-containing protein was incubated with the test compound for 15 min. Each protein sample was then incubated for 90 min with 50 nM of its corresponding FITC-pTyr peptide, and mixed with streptavidin-coated donor beads and anti-FITC acceptor beads simultaneously before detection at 570 nm using EnVisonXcite (Perkin Elmer, Waltham, MA).

[1] = tested on: T3, Grb2 (Growth factor receptor-bound protein 2); assay: AlphaScreen-based assay, selectivity versus Grb2; type: binding; conditions: a = mean of two experiments
T3 construct: First, 75 nM of each SH2-containing protein was incubated with the test compound for 15 min
Method: as §1

HCT-116 cell line = assay: MTT assay, cytotoxicity on HCT-116 cell line; type: cell-based, human; conditions: for antiproliferative / cytotoxic activity on HCT-116 cell line (in words): 48 h treatment; for IC50: Homo sapiens, HCT-116, 48 h treatment, NA: not active up to 200 μM, read-out: HCT-116 IC50 (μM) ± SD
Method: The colorectal cancer HCT116 cells were cultured in McCoy’s media supplemented with penicillin (10,000 U/ml), streptomycin (10 mg/ml), nonessential amino acid, and 10% fetal calf serum (FCS). Cells were then seeded in 48 well plates and, after 24 h, they were incubated with different concentration of newly synthesized compounds dissolved in DMSO.
After 48 h of treatment, medium was removed from each well, and cells were incubated with fresh medium, containing 10% (v/v) of MTT (3-(4,5-dimethyl-2-thiazolyl)-2,5-diphenyl-2H-tetrazolium bromide) reagent. MTT, by interacting with vital cells mitochondria, is converted to formazan, with the development of visible purple crystals. After dissolving these crystals with isopropanol-HCl, the quantification of the conversion of MTT to formazan is determined through spectrophotometer analysis (595 nM), as previously described.

STAT3 homodimers = tested on: STAT3 homodimers; design: method as in PMID 17463090; conditions: read-out: IC50, blocked the formation of STAT3 homodimers; cited from earlier work

T1 sequence (P40763 whole entry, the tested form may be a part): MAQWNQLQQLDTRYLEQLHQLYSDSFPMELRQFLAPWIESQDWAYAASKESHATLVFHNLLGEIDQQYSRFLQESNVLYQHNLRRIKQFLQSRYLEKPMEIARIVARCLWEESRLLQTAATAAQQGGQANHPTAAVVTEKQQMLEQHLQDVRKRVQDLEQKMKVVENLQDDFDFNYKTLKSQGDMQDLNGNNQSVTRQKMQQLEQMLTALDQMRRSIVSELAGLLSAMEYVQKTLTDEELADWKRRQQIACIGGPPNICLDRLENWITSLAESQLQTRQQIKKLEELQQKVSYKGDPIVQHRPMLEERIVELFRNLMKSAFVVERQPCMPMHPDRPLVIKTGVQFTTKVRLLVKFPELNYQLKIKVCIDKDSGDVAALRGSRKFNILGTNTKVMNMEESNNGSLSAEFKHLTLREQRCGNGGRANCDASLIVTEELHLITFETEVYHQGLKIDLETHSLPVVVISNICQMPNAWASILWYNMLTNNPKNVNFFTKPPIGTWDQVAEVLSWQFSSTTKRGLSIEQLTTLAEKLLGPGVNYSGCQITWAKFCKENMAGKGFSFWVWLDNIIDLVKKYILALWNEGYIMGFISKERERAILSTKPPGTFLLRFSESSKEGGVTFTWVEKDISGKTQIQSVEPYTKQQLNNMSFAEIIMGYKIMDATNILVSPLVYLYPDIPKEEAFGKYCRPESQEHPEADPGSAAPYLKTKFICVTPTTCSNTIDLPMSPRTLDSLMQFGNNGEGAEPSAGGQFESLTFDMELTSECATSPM

SMILES	IC50 (STAT3-SH2 domain)	inhibition at 3 µM (STAT3-SH2 domain)	inhibition at 30 µM (STAT3-SH2 domain)	inhibition at 3 µM (STAT1)	IC50 (STAT1)	Grb2 % Inhibition 3 μM [1]	antiproliferative / cytotoxic activity on HCT-116 cell line (in words) (HCT-116 cell line)	inhibition at 30 µM (STAT1)	IC50 (HCT-116 cell line)	IC50 (STAT3 homodimers)	inhibition / binding of STAT3-SH2 domain (in words) (STAT3-SH2 domain; highest concentration tested 30 μM)
CS(=O)(=O)SCCO [Compound 9, S-(2-hydroxyethyl) methanesulfonothioate, reference compound]	> 30 µM										
CCCC(CCC)C(=O)NCCSS(C)(=O)=O [Compound 2, S-(2-(2-propylpentanamido)ethyl) methanesulfonothioate]	1.4 ± 0.1 µM	67.2 ± 11%	106%	1.9 ± 2.2%	> 3 µM	−23.3^a %	inefficacious at concentration up to 100–200 μM				
CC1=C(CC(=O)O)c2cc(F)ccc2/C1=C\c1ccc([S+](C)[O-])cc1 (centres unmarked) [Sulindac, sulindac, reference compound]	> 30 µM		4.2 ± 3.2%		> 30 µM			4.9 ± 2%			
CS(=O)(=O)SCCN [Compound 10, S-(2-aminoethyl) methanesulfonothioate, reference compound]	> 3 µM				> 3 µM	12.3^a %					
Cc1ccc(S(=O)(=O)OCC(=O)Nc2ccc(C(=O)O)c(O)c2)cc1 [Compound S3I-301, reference compound]			7.2 ± 1.7%						39.5 ± 7.7 µM	86 µM	
CCCC(CCC)C(=O)OCCSS(C)(=O)=O [Compound 1, 2-((Methylsulfonyl)thio)ethyl 2-propylpentanoate]	0.7 ± 0.1 µM	101 ± 2.2%	102%	44.9 ± 10.5%	> 3 µM	76.0^a %	moderate antiproliferative activity		136 ± 2.2 µM		
CCCC(CCC)C(=O)O [VA, valproic acid, reference compound]	> 30 µM		0.2 ± 3.2%		> 30 µM			2.7 ± 3%			
CC(=O)Oc1ccccc1C(=O)O [ASA, acetyl salicylic acid, reference compound]	> 30 µM		3.8 ± 1.9%		> 30 µM			6.3 ± 1.7%			
CS(=O)(=O)SCCOC(=O)Cc1ccccc1Nc1c(Cl)cccc1Cl [Compound 5, 2-((methylsulfonyl)thio)ethyl 2-(2-((2,6-dichlorophenyl)amino)phenyl)acetate]	0.5 ± 0.2 µM	110 ± 2.2%	102%	35.4 ± 2.1%	> 3 µM	77.8^a %	inefficacious at concentration up to 100–200 μM				
CS(=O)(=O)CSC(=O)c1ccc(N)cc1O [Compound 8, S-((methylsulfonyl)methyl) 4-amino-2-hydroxybenzothioate]	> 30 µM		41.8 ± 0.9%				good cytotoxic activity		26.3 ± 11.6 µM		moderately inhibited
CC1=C(CC(=O)OCCSS(C)(=O)=O)c2cc(F)ccc2/C1=C\c1ccc([S+](C)[O-])cc1 (centres unmarked) [Compound 3, (Z)-5-fluoro-2-methyl-1-[[4-(methylsulfinyl)phenyl]methylene]-1H-indene-3-acetic acid 2-methanesulfonylsulfanylethyl ester]	0.5 ± 0.1 µM	105 ± 8.2%	102%	46.7 ± 1.1%	> 3 µM	74.6^a %	moderate antiproliferative activity		104 ± 10.9 µM		
CC(=O)Oc1ccccc1C(=O)OCCSS(C)(=O)=O [Compound 4, 2-Acetoxybenzoic acid 2-methanesulfonylsulfanyl-ethyl ester]	1.4 ± 0.1 µM	93.5 ± 2.6%	100 ± 0.1%	44.2 ± 0.8%	3.6 µM	15.9^a %	moderate antiproliferative activity	99.8 ± 0.4%	87.9 ± 11.4 µM		
Cc1ccc(S(=O)(=O)SCC(=O)Nc2ccc(C(=O)O)c(O)c2)cc1 [Compound 6, 2-Hydroxy-4-(2-(tosylthio)acetamido)benzoic acid]	4.9 ± 0.4 µM	46 ± 0.8%	58.4 ± 1.1%	18 ± 0.2%	> 30 µM			39.6 ± 0.8%	> 200 µM		
O=C(O)Cc1ccccc1Nc1c(Cl)cccc1Cl [Diclofenac sodium salt, reference compound]	> 30 µM		4.5 ± 2.4%		> 30 µM			6.5 ± 2.1%			

— publication PMC6009886, “Methanethiosulfonate derivatives as ligands of the STAT3-SH2 domain” (Journal of Enzyme Inhibition and Medicinal Chemistry, 2017)
